{"source": "patent US8192962B2", "about": "“Processes for detecting toxic substances” (Daikin Industries, Ltd., priority 2001, dated 2012)", "tested_on": "Unknown protein yeast genes", "experiment": "DNA chip mRNA expression in yeast, unknown protein yeast genes (Table 1)", "type": "cell-based, Saccharomyces cerevisiae S288C", "summary_of_the_method": "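Ratios compare mRNA levels in stressed and control S. cerevisiae. Each toxicant was applied for two hours to log-phase cultures at 25° C. at a sub-lethal, growth-inhibiting level; fluorescent cDNA (Cy3- or Cy5-dUTP) was hybridized to a genome-wide yeast chip for over 12 h at 65° C.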"}
{"smiles": "C[S+](C)[O-]", "note": "[(15), dimethylsulfoxide]", "values": [{"measurement": "The level of expressed mRNA in the presence of chemical substance/The level of expressed mRNA in the absence of chemical substance", "setting": "yeast gene YAL018C", "result": 6.9}, {"measurement": "The level of expressed mRNA in the presence of chemical substance/The level of expressed mRNA in the absence of chemical substance", "setting": "yeast gene YAL034C", "result": 1.4}, {"measurement": "The level of expressed mRNA in the presence of chemical substance/The level of expressed mRNA in the absence of chemical substance", "setting": "yeast gene YAR031W", "result": 0.9}, {"measurement": "The level of expressed mRNA in the presence of chemical substance/The level of expressed mRNA in the absence of chemical substance", "setting": "yeast gene YAR064W", "result": 1.9}, {"measurement": "The level of expressed mRNA in the presence of chemical substance/The level of expressed mRNA in the absence of chemical substance", "setting": "yeast gene YBL048W", "result": 4.1}, {"measurement": "The level of expressed mRNA in the presence of chemical substance/The level of expressed mRNA in the absence of chemical substance", "setting": "yeast gene YBL107C", "result": 1.4}, {"measurement": "The level of expressed mRNA in the presence of chemical substance/The level of expressed mRNA in the absence of chemical substance", "setting": "yeast gene YBR012C", "result": 1.1}, {"measurement": "The level of expressed mRNA in the presence of chemical substance/The level of expressed mRNA in the absence of chemical substance", "setting": "yeast gene YBR062C", "result": 0.7}, {"measurement": "The level of expressed mRNA in the presence of chemical substance/The level of expressed mRNA in the absence of chemical substance", "setting": "yeast gene YBR101C, incubated two hours with substance", "result": 0.5}, {"measurement": "The level of expressed mRNA in the presence of chemical substance/The level of expressed mRNA in the absence of chemical substance", "setting": "yeast gene YBR287W", "result": 1.3}, {"measurement": "The level of expressed mRNA in the presence of chemical substance/The level of expressed mRNA in the absence of chemical substance", "setting": "yeast gene YCR013C", "result": 1.6}, {"measurement": "The level of expressed mRNA in the presence of chemical substance/The level of expressed mRNA in the absence of chemical substance", "setting": "yeast gene YDL027C", "result": 1.4}, {"measurement": "The level of expressed mRNA in the presence of chemical substance/The level of expressed mRNA in the absence of chemical substance", "setting": "yeast gene YDL110C", "result": 1.3}, {"measurement": "The level of expressed mRNA in the presence of chemical substance/The level of expressed mRNA in the absence of chemical substance", "setting": "yeast gene YDL169C", "result": 2.2}, {"measurement": "The level of expressed mRNA in the presence of chemical substance/The level of expressed mRNA in the absence of chemical substance", "setting": "yeast gene YDL222C, incubated two hours with chemical substance", "result": 7.1}, {"measurement": "The level of expressed mRNA in the presence of chemical substance/The level of expressed mRNA in the absence of chemical substance", "setting": "yeast gene YDR070C", "result": 2.1}, {"measurement": "The level of expressed mRNA in the presence of chemical substance/The level of expressed mRNA in the absence of chemical substance", "setting": "yeast gene YDR078C, incubated two hours with substance", "result": 0.5}, {"measurement": "The level of expressed mRNA in the presence of chemical substance/The level of expressed mRNA in the absence of chemical substance", "setting": "yeast gene YDR128W", "result": 1.4}, {"measurement": "The level of expressed mRNA in the presence of chemical substance/The level of expressed mRNA in the absence of chemical substance", "setting": "yeast gene YDR202C, incubated two hours with substance", "result": 0.5}, {"measurement": "The level of expressed mRNA in the presence of chemical substance/The level of expressed mRNA in the absence of chemical substance", "setting": "yeast gene YDR210W", "result": 1.0}, {"measurement": "The level of expressed mRNA in the presence of chemical substance/The level of expressed mRNA in the absence of chemical substance", "setting": "yeast gene YDR214W", "result": 1.1}, {"measurement": "The level of expressed mRNA in the presence of chemical substance/The level of expressed mRNA in the absence of chemical substance", "setting": "yeast gene YDR250C", "result": 0.7}, {"measurement": "The level of expressed mRNA in the presence of chemical substance/The level of expressed mRNA in the absence of chemical substance", "setting": "yeast gene YDR278C", "result": 0.7}, {"measurement": "The level of expressed mRNA in the presence of chemical substance/The level of expressed mRNA in the absence of chemical substance", "setting": "yeast gene YDR435C", "result": 0.6}, {"measurement": "The level of expressed mRNA in the presence of chemical substance/The level of expressed mRNA in the absence of chemical substance", "setting": "yeast gene YDR476C", "result": 2.2}, {"measurement": "The level of expressed mRNA in the presence of chemical substance/The level of expressed mRNA in the absence of chemical substance", "setting": "yeast gene YER037W", "result": 0.8}, {"measurement": "The level of expressed mRNA in the presence of chemical substance/The level of expressed mRNA in the absence of chemical substance", "setting": "yeast gene YER106W, incubated two hours with chemical substance", "result": 6.8}, {"measurement": "The level of expressed mRNA in the presence of chemical substance/The level of expressed mRNA in the absence of chemical substance", "setting": "yeast gene YER124C, incubated two hours with substance", "result": 0.5}, {"measurement": "The level of expressed mRNA in the presence of chemical substance/The level of expressed mRNA in the absence of chemical substance", "setting": "yeast gene YER182W, incubated two hours with substance", "result": 0.5}, {"measurement": "The level of expressed mRNA in the presence of chemical substance/The level of expressed mRNA in the absence of chemical substance", "setting": "yeast gene YFL024C", "result": 0.9}, {"measurement": "The level of expressed mRNA in the presence of chemical substance/The level of expressed mRNA in the absence of chemical substance", "setting": "yeast gene YGL121C", "result": 1.6}, {"measurement": "The level of expressed mRNA in the presence of chemical substance/The level of expressed mRNA in the absence of chemical substance", "setting": "yeast gene YGR035C", "result": 0.3}, {"measurement": "The level of expressed mRNA in the presence of chemical substance/The level of expressed mRNA in the absence of chemical substance", "setting": "yeast gene YGR110W", "result": 1.2}, {"measurement": "The level of expressed mRNA in the presence of chemical substance/The level of expressed mRNA in the absence of chemical substance", "setting": "yeast gene YGR139W", "result": 2.3}, {"measurement": "The level of expressed mRNA in the presence of chemical substance/The level of expressed mRNA in the absence of chemical substance", "setting": "yeast gene YGR211W, incubated two hours with substance", "result": 0.5}, {"measurement": "The level of expressed mRNA in the presence of chemical substance/The level of expressed mRNA in the absence of chemical substance", "setting": "yeast gene YGR284C", "result": 3.9}, {"measurement": "The level of expressed mRNA in the presence of chemical substance/The level of expressed mRNA in the absence of chemical substance", "setting": "yeast gene YHR029C", "result": 1.0}, {"measurement": "The level of expressed mRNA in the presence of chemical substance/The level of expressed mRNA in the absence of chemical substance", "setting": "yeast gene YHR054C", "result": 0.8}, {"measurement": "The level of expressed mRNA in the presence of chemical substance/The level of expressed mRNA in the absence of chemical substance", "setting": "yeast gene YHR095W", "result": 0.8}, {"measurement": "The level of expressed mRNA in the presence of chemical substance/The level of expressed mRNA in the absence of chemical substance", "setting": "yeast gene YHR209W", "result": 5.0}, {"measurement": "The level of expressed mRNA in the presence of chemical substance/The level of expressed mRNA in the absence of chemical substance", "setting": "yeast gene YIL117C, incubated two hours with chemical substance", "result": 7.5}, {"measurement": "The level of expressed mRNA in the presence of chemical substance/The level of expressed mRNA in the absence of chemical substance", "setting": "yeast gene YJL037W", "result": 1.6}, {"measurement": "The level of expressed mRNA in the presence of chemical substance/The level of expressed mRNA in the absence of chemical substance", "setting": "yeast gene YJL149W, incubated two hours with chemical substance", "result": 9.0}, {"measurement": "The level of expressed mRNA in the presence of chemical substance/The level of expressed mRNA in the absence of chemical substance", "setting": "yeast gene YJR030C", "result": 0.8}, {"measurement": "The level of expressed mRNA in the presence of chemical substance/The level of expressed mRNA in the absence of chemical substance", "setting": "yeast gene YJR085C, incubated two hours with substance", "result": 0.5}, {"measurement": "The level of expressed mRNA in the presence of chemical substance/The level of expressed mRNA in the absence of chemical substance", "setting": "yeast gene YKL071W", "result": 1.7}, {"measurement": "The level of expressed mRNA in the presence of chemical substance/The level of expressed mRNA in the absence of chemical substance", "setting": "yeast gene YKL107W", "result": 1.7}, {"measurement": "The level of expressed mRNA in the presence of chemical substance/The level of expressed mRNA in the absence of chemical substance", "setting": "yeast gene YKR040C", "result": 1.1}, {"measurement": "The level of expressed mRNA in the presence of chemical substance/The level of expressed mRNA in the absence of chemical substance", "setting": "yeast gene YKR075C", "result": 0.4}, {"measurement": "The level of expressed mRNA in the presence of chemical substance/The level of expressed mRNA in the absence of chemical substance", "setting": "yeast gene YLL056C", "result": 1.5}]}
